ChEMBL document CHEMBL1201862, “PubChem BioAssay data set” (2004)
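Cultured in 96-well plates, cells were exposed to test compound for 48 hours across five concentrations. GI50 = concentration required for 50% inhibition of growth.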 The source made the active and inactive calls. Rule as the data show it: active = GI50 up to about 1.1 µM and inactive = higher.

Key:
Experiment in all cases: inhibition of tumour cell growth, NCI panel, 48 h
EKVX = test system: EKVX
UACC-257 = test system: UACC-257
TK-10 = test system: TK-10
786-0 = test system: 786-0
SR = test system: SR
BT-549 = test system: BT-549
Malme-3M = test system: Malme-3M
NCI-H522 = test system: NCI-H522
NCI/ADR-RES = test system: NCI/ADR-RES
CCRF-CEM = test system: CCRF-CEM
OVCAR-8 = test system: OVCAR-8
HOP-92 = test system: HOP-92
SK-MEL-28 = test system: SK-MEL-28
SK-MEL-5 = test system: SK-MEL-5
KM12 = test system: KM12
UO-31 = test system: UO-31
HCT-15 = test system: HCT-15
HCT-116 = test system: HCT-116
SNB-19 = test system: SNB-19
DU-145 = test system: DU-145
CAKI-1 = test system: CAKI-1
SNB-75 = test system: SNB-75
OVCAR-4 = test system: OVCAR-4
RXF 393 = test system: RXF 393
COLO 205 = test system: COLO 205
MDA-N = test system: MDA-N
RPMI-8226 = test system: RPMI-8226
T47D = test system: T47D
A549 = test system: A549
PC-3 = test system: PC-3
HL-60 = test system: HL-60
NCI-H460 = test system: NCI-H460
MDA-MB-231 = test system: MDA-MB-231
MDA-MB-435 = test system: MDA-MB-435
SF-539 = test system: SF-539
OVCAR-5 = test system: OVCAR-5
SN12C = test system: SN12C
LOX IMVI = test system: LOX IMVI
IGROV-1 = test system: IGROV-1
MOLT-4 = test system: MOLT-4
SF-295 = test system: SF-295
UACC-62 = test system: UACC-62
NCI-H226 = test system: NCI-H226
SK-MEL-2 = test system: SK-MEL-2
M14 = test system: M14
K562 = test system: K562
SW-620 = test system: SW-620
A498 = test system: A498
ACHN = test system: ACHN
SF-268 = test system: SF-268
MCF7 = test system: MCF7
U-251 = test system: U-251
HCC 2998 = test system: HCC 2998
Hs-578T = test system: Hs-578T
OVCAR-3 = test system: OVCAR-3
HOP-62 = test system: HOP-62
SK-OV-3 = test system: SK-OV-3
NCI-H23 = test system: NCI-H23
HT-29 = test system: HT-29

Measured: GI50

COc1cc(OCc2ccc3nc(-c4ccccc4)c(N)nc3c2)cc(OC)c1OC
inactive: EKVX 19.7 µM | UACC-257 25 µM | TK-10 24.1 µM | 786-0 30.8 µM | SR 17.9 µM | BT-549 16.1 µM | Malme-3M 13.4 µM | NCI-H522 13.6 µM | NCI/ADR-RES 20.7 µM | CCRF-CEM 16.7 µM | OVCAR-8 27.8 µM | HOP-92 11.4 µM | SK-MEL-28 19.3 µM | SK-MEL-5 11.3 µM | KM12 18.6 µM | UO-31 10.7 µM | HCT-116 3.61 µM | SNB-19 24.2 µM | DU-145 22.2 µM | CAKI-1 23.4 µM | SNB-75 19.2 µM | OVCAR-4 13.8 µM | RXF 393 23.1 µM | COLO 205 16.5 µM | MDA-N 15.5 µM | RPMI-8226 8.79 µM | T47D 14.4 µM | A549 20.6 µM | PC-3 17.8 µM | HL-60 12.4 µM | NCI-H460 18.7 µM | MDA-MB-231 25.5 µM | MDA-MB-435 19.1 µM | SF-539 20.7 µM | OVCAR-5 17.6 µM | SN12C 25.7 µM | LOX IMVI 13.7 µM | IGROV-1 22.2 µM | MOLT-4 8.13 µM | SF-295 26 µM | UACC-62 13.4 µM | NCI-H226 21.3 µM | SK-MEL-2 19.9 µM | M14 15.8 µM | K562 15.5 µM | SW-620 28.2 µM | A498 27.1 µM | ACHN 20.8 µM | SF-268 34.8 µM | MCF7 22 µM | U-251 32.5 µM | HCC 2998 35 µM | Hs-578T 21.2 µM | OVCAR-3 16.4 µM
17.3 µM: HCT-15

C=CCN(C(C)=O)c1cc(OCc2ccccc2)c2c(c1)c(C)cn2S(=O)(=O)c1ccccc1
inactive: EKVX 8.85 µM | UACC-257 5.11 µM | TK-10 39.6 µM | 786-0 6.21 µM | BT-549 11.4 µM | Malme-3M 6.58 µM | NCI-H522 4.08 µM | NCI/ADR-RES 4.95 µM | CCRF-CEM 4.11 µM | OVCAR-8 5.57 µM | HOP-92 5.96 µM | HOP-62 11.5 µM | SK-MEL-28 21.2 µM | SK-MEL-5 4.37 µM | KM12 3.85 µM | UO-31 2.86 µM | HCT-116 3.85 µM | SNB-19 7.08 µM | DU-145 9.75 µM | CAKI-1 6.59 µM | SNB-75 6.18 µM | SK-OV-3 16.1 µM | OVCAR-4 5.42 µM | RXF 393 4.74 µM | COLO 205 3.78 µM | MDA-N 4.66 µM | RPMI-8226 2.47 µM | T47D 3.26 µM | A549 4.06 µM | PC-3 4.21 µM | HL-60 4.89 µM | NCI-H460 4.75 µM | MDA-MB-231 6.98 µM | MDA-MB-435 5.11 µM | SF-539 11.5 µM | OVCAR-5 11.8 µM | SN12C 5.52 µM | LOX IMVI 5.07 µM | IGROV-1 10 µM | MOLT-4 2.67 µM | SF-295 3.94 µM | UACC-62 7.1 µM | NCI-H226 7.29 µM | SK-MEL-2 3.11 µM | M14 5.4 µM | K562 2.83 µM | SW-620 5.46 µM | A498 5.16 µM | ACHN 4.36 µM | SF-268 5.37 µM | MCF7 3.93 µM | U-251 4.98 µM | HCC 2998 22.1 µM | Hs-578T 7.4 µM | NCI-H23 7.8 µM | OVCAR-3 4.15 µM | HT-29 5.55 µM
4.79 µM: HCT-15
active: SR 0.0566 µM

O=C1NC2CCCCC2N=C1CC(=O)c1ccc(Br)cc1 (stereo not drawn)
29.4 µM: HCT-15
inactive: EKVX 17.8 µM | UACC-257 > 100 µM | TK-10 74.5 µM | 786-0 64.1 µM | SR > 100 µM | BT-549 14.6 µM | Malme-3M > 100 µM | NCI-H522 3.05 µM | NCI/ADR-RES 4.07 µM | CCRF-CEM 5.2 µM | OVCAR-8 4.19 µM | HOP-92 10.2 µM | HOP-62 31.8 µM | SK-MEL-28 > 100 µM | SK-MEL-5 > 100 µM | KM12 > 100 µM | UO-31 3.86 µM | HCT-116 66.2 µM | SNB-19 > 100 µM | DU-145 > 100 µM | CAKI-1 > 100 µM | SK-OV-3 28.2 µM | RXF 393 19.5 µM | COLO 205 > 100 µM | MDA-N > 100 µM | RPMI-8226 2.83 µM | T47D 3.94 µM | A549 6 µM | PC-3 32.7 µM | HL-60 > 100 µM | NCI-H460 3.4 µM | MDA-MB-231 16.2 µM | MDA-MB-435 > 100 µM | SF-539 26.8 µM | OVCAR-5 > 100 µM | SN12C 27.7 µM | LOX IMVI 19.2 µM | IGROV-1 5.22 µM | MOLT-4 5.61 µM | SF-295 17.9 µM | UACC-62 4.57 µM | NCI-H226 4.22 µM | SK-MEL-2 70.6 µM | M14 > 100 µM | K562 > 100 µM | SW-620 > 100 µM | A498 > 100 µM | ACHN 49.1 µM | SF-268 28.6 µM | MCF7 18 µM | U-251 20.6 µM | HCC 2998 39 µM | Hs-578T 4.86 µM | NCI-H23 > 100 µM | OVCAR-3 > 100 µM | HT-29 > 100 µM

Cc1ccc(-c2c3c(n(C4OC(CO)C(O)C(O)C4O)c(=S)c2C#N)CC(C)(C)CC3=O)cc1 (stereo not drawn)
45.9 µM: HCT-15
inactive: UACC-257 > 100 µM | TK-10 > 100 µM | 786-0 47.4 µM | SR 37 µM | BT-549 50 µM | Malme-3M 96.6 µM | NCI-H522 > 100 µM | NCI/ADR-RES > 100 µM | CCRF-CEM 68.2 µM | OVCAR-8 71.9 µM | HOP-92 68.7 µM | HOP-62 > 100 µM | SK-MEL-28 52.2 µM | SK-MEL-5 34.6 µM | KM12 > 100 µM | UO-31 60 µM | HCT-116 40.4 µM | SNB-19 > 100 µM | DU-145 > 100 µM | CAKI-1 > 100 µM | SNB-75 49.1 µM | OVCAR-4 > 100 µM | RXF 393 > 100 µM | COLO 205 > 10 µM | MDA-N 46 µM | RPMI-8226 32.7 µM | T47D 34.4 µM | A549 > 100 µM | PC-3 41.1 µM | HL-60 41.5 µM | NCI-H460 52.2 µM | MDA-MB-231 80.5 µM | MDA-MB-435 65.2 µM | SF-539 39.6 µM | OVCAR-5 > 100 µM | SN12C > 100 µM | LOX IMVI 48.3 µM | IGROV-1 > 100 µM | MOLT-4 36.5 µM | SF-295 > 100 µM | UACC-62 46.5 µM | NCI-H226 48.6 µM | SK-MEL-2 80.9 µM | M14 93.5 µM | K562 45.2 µM | SW-620 > 100 µM | A498 > 100 µM | ACHN 65.5 µM | SF-268 > 100 µM | MCF7 45.7 µM | U-251 52.4 µM | HCC 2998 > 100 µM | Hs-578T 70.6 µM | NCI-H23 > 100 µM | OVCAR-3 > 100 µM | HT-29 33.1 µM
